This is an account of results in article PMC1262691, “Probing stereoselective inhibition of the acyl binding site of cholesterol esterase with four diastereomers of 2'-N-α-methylbenzylcarbamyl-1, 1'-bi-2-naphthol” (BMC Biochemistry, 2005).

Data set [1] addresses T1, pancreatic cholesterol esterase (CEase) (Sus scrofa, UniProt A0A286ZKB1).
T1 construct: gene CEL
T1 sequence (A0A286ZKB1 96-682): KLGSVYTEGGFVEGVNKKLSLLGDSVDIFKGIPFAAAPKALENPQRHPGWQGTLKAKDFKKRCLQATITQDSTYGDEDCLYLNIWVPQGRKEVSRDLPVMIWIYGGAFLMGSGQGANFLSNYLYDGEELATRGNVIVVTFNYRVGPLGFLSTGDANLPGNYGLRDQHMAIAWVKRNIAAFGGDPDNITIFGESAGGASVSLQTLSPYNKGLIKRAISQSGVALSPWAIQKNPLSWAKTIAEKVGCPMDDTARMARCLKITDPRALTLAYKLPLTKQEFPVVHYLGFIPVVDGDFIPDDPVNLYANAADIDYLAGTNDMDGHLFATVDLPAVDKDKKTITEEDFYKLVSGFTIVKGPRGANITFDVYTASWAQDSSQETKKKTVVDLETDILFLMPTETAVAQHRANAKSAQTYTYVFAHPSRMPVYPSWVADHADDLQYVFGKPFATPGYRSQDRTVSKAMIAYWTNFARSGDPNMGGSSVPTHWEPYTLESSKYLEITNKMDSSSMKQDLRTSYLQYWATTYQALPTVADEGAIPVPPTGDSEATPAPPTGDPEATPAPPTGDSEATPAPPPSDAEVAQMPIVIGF
Nature of the data set: protection of the enzyme against carbamate inactivation by […] TFA. The format is biochemical.

Data set [2] has as its target T1, pancreatic cholesterol esterase (CEase). Nature of the data set: time-dependent (pseudo substrate) inhibition kinetics, PNPB hydrolysis at […] nm. Type of data set: biochemical.
Substrate in data set [3]: CCCC(=O)Oc1ccc([N+](=O)[O-])cc1
Nature of the data set: purified protein. Type of data set: biochemical, Sus scrofa.

Where a name gives a salt, the structure may show the parent alone.

Take `O=C(c1ccccc1)C(F)(F)F` [TFA, trifluoroacetophenone]: the “protection of the enzyme against carbamate inactivation by 2 μM TFA” value in data set [1] is reported as “the enzyme is protected from inhibition by carbamate by binding of TFA”.

On to `C[C@H](NC(=O)Oc1ccc2ccccc2c1-c1c(O)ccc2ccccc12)c1ccccc1` [(1S, αS)-1, 2'-N-(S)-α-methylbenzylcarbamyl-(S)-1, 1'-bi-2-naphthol], for which the KI (inactivation) in data set [2] worked out at 6000 ± 400 nM.

Turning to `C[C@@H](NC(=O)Oc1ccc2ccccc2c1-c1c(O)ccc2ccccc12)c1ccccc1` [(1R, αR)-1, 2'-N-(R)-α-methylbenzylcarbamyl-(R)-1, 1'-bi-2-naphthol], the KI (inactivation) in data set [2] came to 200 ± 10 nM.

`C[C@@H](NC(=O)Oc1ccc2ccccc2c1-c1c(O)ccc2ccccc12)c1ccccc1` [(1S, αR)-1, 2'-N-(R)-α-methylbenzylcarbamyl-(S)-1, 1'-bi-2-naphthol] displayed a KI (inactivation) in data set [2] of 2000 ± 100 nM.

In the case of `C[C@H](NC(=O)Oc1ccc2ccccc2c1-c1c(O)ccc2ccccc12)c1ccccc1` [(1R, αS)-1, 2'-N-(S)-α-methylbenzylcarbamyl-(R)-1, 1'-bi-2-naphthol], the KI (inactivation) in data set [2] amounted to 500 ± 30 nM.

B1: pancreatic cholesterol esterase (CEase) (Sus scrofa) (protein)
chain: KLGSVYTEGGFVEGVNKKLSLLGDSVDIFKGIPFAAAPKALENPQRHPGWQGTLKAKDFKKRCLQATITQDSTYGDEDCLYLNIWVPQGRKEVSRDLPVMIWIYGGAFLMGSGQGANFLSNYLYDGEELATRGNVIVVTFNYRVGPLGFLSTGDANLPGNYGLRDQHMAIAWVKRNIAAFGGDPDNITIFGESAGGASVSLQTLSPYNKGLIKRAISQSGVALSPWAIQKNPLSWAKTIAEKVGCPMDDTARMARCLKITDPRALTLAYKLPLTKQEFPVVHYLGFIPVVDGDFIPDDPVNLYANAADIDYLAGTNDMDGHLFATVDLPAVDKDKKTITEEDFYKLVSGFTIVKGPRGANITFDVYTASWAQDSSQETKKKTVVDLETDILFLMPTETAVAQHRANAKSAQTYTYVFAHPSRMPVYPSWVADHADDLQYVFGKPFATPGYRSQDRTVSKAMIAYWTNFARSGDPNMGGSSVPTHWEPYTLESSKYLEITNKMDSSSMKQDLRTSYLQYWATTYQALPTVADEGAIPVPPTGDSEATPAPPTGDPEATPAPPTGDSEATPAPPPSDAEVAQMPIVIGF
For the molecule B1, the Km in data set [3] came out at 140 ± 10 µM.
